# Test results as given in a compilation of properties of binary mixtures (doi:10.1016/j.molliq.2016.09.077).
# Experiment: xn = mol fraction of the nth substance listed
# Details: 100 kPa
compound,measurement,setting,value
CO + CC[n+]1ccn(C)c1.O=S(=O)([N-]S(=O)(=O)C(F)(F)F)C(F)(F)F,speed of sound,"303.15 K, x1 = 1",1086.9 m/s
same,viscosity,"303.15 K, x1 = 1",0.51 mPa·s
same,speed of sound,"313.15 K, x1 = 1",1054.5 m/s
same,viscosity,"313.15 K, x1 = 1",0.45 mPa·s
same,speed of sound,"323.15 K, x1 = 1",1022.5 m/s
same,viscosity,"323.15 K, x1 = 1",0.41 mPa·s
CC[n+]1ccn(C)c1.O=S(=O)([N-]S(=O)(=O)C(F)(F)F)C(F)(F)F + CO,speed of sound,"298.15 K, x2 = 0",1240.2 m/s
same,viscosity,"298.15 K, x2 = 0",32.49 mPa·s
same,speed of sound,"298.15 K, x2 = 0.0938",1236.3 m/s
same,viscosity,"298.15 K, x2 = 0.0938",26.33 mPa·s
same,speed of sound,"298.15 K, x2 = 0.1965",1231.5 m/s
same,viscosity,"298.15 K, x2 = 0.1965",20.39 mPa·s
same,speed of sound,"298.15 K, x2 = 0.2889",1225.3 m/s
same,viscosity,"298.15 K, x2 = 0.2889",15.83 mPa·s
same,speed of sound,"298.15 K, x2 = 0.4005",1217.3 m/s
same,viscosity,"298.15 K, x2 = 0.4005",11.82 mPa·s
same,speed of sound,"298.15 K, x2 = 0.5088",1207.8 m/s
same,viscosity,"298.15 K, x2 = 0.5088",8.77 mPa·s
same,speed of sound,"298.15 K, x2 = 0.6909",1177.9 m/s
same,viscosity,"298.15 K, x2 = 0.6909",4.64 mPa·s
same,speed of sound,"298.15 K, x2 = 0.7961",1159.9 m/s
same,viscosity,"298.15 K, x2 = 0.7961",2.86 mPa·s
same,speed of sound,"298.15 K, x2 = 0.8978",1132.9 m/s
same,viscosity,"298.15 K, x2 = 0.8978",1.55 mPa·s
same,speed of sound,"303.15 K, x2 = 0",1229.3 m/s
same,viscosity,"303.15 K, x2 = 0",27.68 mPa·s
same,speed of sound,"303.15 K, x2 = 0.0938",1225.2 m/s
same,viscosity,"303.15 K, x2 = 0.0938",22.39 mPa·s
same,speed of sound,"303.15 K, x2 = 0.1965",1220.1 m/s
same,viscosity,"303.15 K, x2 = 0.1965",17.79 mPa·s
same,speed of sound,"303.15 K, x2 = 0.2889",1214.2 m/s
same,viscosity,"303.15 K, x2 = 0.2889",13.73 mPa·s
same,speed of sound,"303.15 K, x2 = 0.4005",1206.3 m/s
same,viscosity,"303.15 K, x2 = 0.4005",10.47 mPa·s
same,speed of sound,"303.15 K, x2 = 0.5088",1196.7 m/s
same,viscosity,"303.15 K, x2 = 0.5088",7.7 mPa·s
same,speed of sound,"303.15 K, x2 = 0.5988",1183.4 m/s
same,viscosity,"303.15 K, x2 = 0.5988",5.82 mPa·s
same,speed of sound,"303.15 K, x2 = 0.6909",1166.9 m/s
same,viscosity,"303.15 K, x2 = 0.6909",4.25 mPa·s
same,speed of sound,"303.15 K, x2 = 0.7961",1147.4 m/s
same,viscosity,"303.15 K, x2 = 0.7961",2.61 mPa·s
same,speed of sound,"303.15 K, x2 = 0.8978",1120.1 m/s
same,viscosity,"303.15 K, x2 = 0.8978",1.43 mPa·s
same,speed of sound,"308.15 K, x2 = 0",1218.5 m/s
same,viscosity,"308.15 K, x2 = 0",23.29 mPa·s
same,speed of sound,"308.15 K, x2 = 0.0938",1214.6 m/s
same,viscosity,"308.15 K, x2 = 0.0938",19.27 mPa·s
same,speed of sound,"308.15 K, x2 = 0.1965",1208.9 m/s
same,viscosity,"308.15 K, x2 = 0.1965",15.16 mPa·s
same,speed of sound,"308.15 K, x2 = 0.2889",1203.2 m/s
same,viscosity,"308.15 K, x2 = 0.2889",12.01 mPa·s
same,speed of sound,"308.15 K, x2 = 0.5088",1185.5 m/s
same,viscosity,"308.15 K, x2 = 0.5088",6.82 mPa·s
same,speed of sound,"308.15 K, x2 = 0.5988",1172.4 m/s
same,viscosity,"308.15 K, x2 = 0.5988",5.22 mPa·s
same,speed of sound,"308.15 K, x2 = 0.6909",1154.9 m/s
same,viscosity,"308.15 K, x2 = 0.6909",3.84 mPa·s
same,speed of sound,"308.15 K, x2 = 0.7961",1135.5 m/s
same,viscosity,"308.15 K, x2 = 0.7961",2.37 mPa·s
same,speed of sound,"313.15 K, x2 = 0",1207.9 m/s
same,viscosity,"313.15 K, x2 = 0",20.16 mPa·s
same,speed of sound,"313.15 K, x2 = 0.0938",1203.9 m/s
same,viscosity,"313.15 K, x2 = 0.0938",16.71 mPa·s
same,speed of sound,"313.15 K, x2 = 0.1965",1197.9 m/s
same,viscosity,"313.15 K, x2 = 0.1965",13.25 mPa·s
same,speed of sound,"313.15 K, x2 = 0.2889",1192.3 m/s
same,viscosity,"313.15 K, x2 = 0.2889",10.57 mPa·s
same,speed of sound,"313.15 K, x2 = 0.5988",1161.2 m/s
same,viscosity,"313.15 K, x2 = 0.5988",4.65 mPa·s
same,speed of sound,"313.15 K, x2 = 0.7961",1122.7 m/s
same,viscosity,"313.15 K, x2 = 0.7961",2.16 mPa·s
same,speed of sound,"313.15 K, x2 = 0.8978",1094.6 m/s
same,viscosity,"313.15 K, x2 = 0.8978",1.22 mPa·s
same,speed of sound,"318.15 K, x2 = 0",1197.3 m/s
same,viscosity,"318.15 K, x2 = 0",17.48 mPa·s
same,speed of sound,"318.15 K, x2 = 0.0938",1193.3 m/s
same,viscosity,"318.15 K, x2 = 0.0938",14.63 mPa·s
same,speed of sound,"318.15 K, x2 = 0.2889",1181.6 m/s
same,viscosity,"318.15 K, x2 = 0.2889",9.38 mPa·s
same,speed of sound,"318.15 K, x2 = 0.4005",1173.4 m/s
same,viscosity,"318.15 K, x2 = 0.4005",7.26 mPa·s
same,speed of sound,"318.15 K, x2 = 0.5088",1163.5 m/s
same,viscosity,"318.15 K, x2 = 0.5088",5.47 mPa·s
same,speed of sound,"318.15 K, x2 = 0.5988",1150.2 m/s
same,viscosity,"318.15 K, x2 = 0.5988",4.22 mPa·s
same,speed of sound,"318.15 K, x2 = 0.6909",1131.2 m/s
same,viscosity,"318.15 K, x2 = 0.6909",3.13 mPa·s
same,speed of sound,"318.15 K, x2 = 0.7961",1110.4 m/s
same,viscosity,"318.15 K, x2 = 0.7961",1.98 mPa·s
same,speed of sound,"318.15 K, x2 = 0.8978",1082 m/s
same,viscosity,"318.15 K, x2 = 0.8978",1.13 mPa·s
same,speed of sound,"323.15 K, x2 = 0",1187 m/s
same,viscosity,"323.15 K, x2 = 0",15.34 mPa·s
same,speed of sound,"323.15 K, x2 = 0.0938",1182.8 m/s
same,viscosity,"323.15 K, x2 = 0.0938",12.94 mPa·s
same,speed of sound,"323.15 K, x2 = 0.1965",1176.2 m/s
same,viscosity,"323.15 K, x2 = 0.1965",10.42 mPa·s
same,speed of sound,"323.15 K, x2 = 0.2889",1170.9 m/s
same,viscosity,"323.15 K, x2 = 0.2889",8.38 mPa·s
same,speed of sound,"323.15 K, x2 = 0.4005",1162.8 m/s
same,viscosity,"323.15 K, x2 = 0.4005",6.56 mPa·s
same,speed of sound,"323.15 K, x2 = 0.5088",1152.6 m/s
same,viscosity,"323.15 K, x2 = 0.5088",4.94 mPa·s
same,speed of sound,"323.15 K, x2 = 0.5988",1139.3 m/s
same,viscosity,"323.15 K, x2 = 0.5988",3.86 mPa·s
same,speed of sound,"323.15 K, x2 = 0.6909",1119.6 m/s
same,viscosity,"323.15 K, x2 = 0.6909",2.87 mPa·s
same,speed of sound,"323.15 K, x2 = 0.8978",1069.4 m/s
same,viscosity,"323.15 K, x2 = 0.8978",1.05 mPa·s
